Experimental data published in patent US20250171437A1 (Agios Pharmaceuticals,Inc., priority 2022, published 2025).

Molecular target: T1, human PAH with the R408W mutation (A375 R408W cells) (Homo sapiens, UniProt P00439, R408W)
T1 construct: expressed in transfected cells
T1 sequence (P00439 1-452 R408W): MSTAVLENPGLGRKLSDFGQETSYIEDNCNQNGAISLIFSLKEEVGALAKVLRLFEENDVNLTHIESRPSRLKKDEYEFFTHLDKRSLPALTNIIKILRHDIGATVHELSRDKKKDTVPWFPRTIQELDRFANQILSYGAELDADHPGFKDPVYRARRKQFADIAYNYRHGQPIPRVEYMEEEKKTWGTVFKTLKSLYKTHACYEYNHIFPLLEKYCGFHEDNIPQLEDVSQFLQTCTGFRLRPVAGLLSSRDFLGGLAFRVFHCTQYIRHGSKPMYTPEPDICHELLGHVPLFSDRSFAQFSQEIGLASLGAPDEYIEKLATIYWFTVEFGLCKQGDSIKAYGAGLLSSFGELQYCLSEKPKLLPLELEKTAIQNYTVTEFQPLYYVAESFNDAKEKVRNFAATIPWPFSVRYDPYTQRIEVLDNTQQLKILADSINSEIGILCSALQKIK
Assay: Cell Based Phenylalanine Flux Assay
Details: A375 R408W cells; 24 hrs with compound, then 20 μM sepiapterin and 800 μM 13C9,15N-Phenylalanine for 4 hours; 13C-Tyrosine by LC-MS; average where tested multiple times
In short: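 Puromycin-selected A375 line, lentiviral hPAH R408W; cmpd 24 h, 37 °C, 5% CO2, 0.5% DMSO; then 20 μM sepiapterin + 800 μM 13C9,15N-Phe, 4 h; media extracted in 80% MeCN; 13C-Tyr by LC-MS; AC50 from 10-pt curves.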

| Compound | AC50 |
| --- | --- |
| O=C(c1cnn2cc(Br)ccc12)N1CCc2[nH]cnc2[C@H]1c1nc2cc(F)ccc2o1 [Example 69, (S)-(6-bromopyrazolo[1,5-a]pyridin-3-yl)(4-(5-fluorobenzo[d]oxazol-2-yl)-6,7-dihydro-1H-imidazo[4,5-c]pyridin-5(4H)-yl)methanone] | 500 to 1000 nM |
| O=C(c1ccnn1CC(F)F)N1CCc2[nH]cnc2[C@H]1c1nc2ccccc2o1 [Example 835, (S)-(4-(benzo[d]oxazol-2-yl)-6,7-dihydro-1H-imidazo[4,5-c]pyridin-5(4H)-yl)(1-(2,2-difluoroethyl)-1H-pyrazol-5-yl)methanone] | ≤ 500 nM |
| CN(C)c1cn2ncc(C(=O)N3CCc4[nH]cnc4[C@H]3c3nc4cc(F)ccc4o3)c2cc1Cl [Example 207, (S)-(5-chloro-6-(dimethylamino)pyrazolo[1,5-a]pyridin-3-yl)(4-(5-fluorobenzo[d]oxazol-2-yl)-6,7-dihydro-1H-imidazo[4,5-c]pyridin-5(4H)-yl)methanone] | ≤ 500 nM |
| COc1ccc(-c2nc(C(F)F)c(C(=O)N3CCc4[nH]cnc4[C@H]3c3nc4cccc(F)c4o3)o2)nc1 [Example 616, (S)-(4-(difluoromethyl)-2-(5-methoxypyridin-2-yl)oxazol-5-yl)(4-(7-fluorobenzo[d]oxazol-2-yl)-6,7-dihydro-1H-imidazo[4,5-c]pyridin-5(4H)-yl)methanone] | ≤ 500 nM |
| O=C(c1ocnc1C(F)F)N1CCc2[nH]cnc2[C@H]1c1nc2ccc(F)c(F)c2o1 [Example 305, (S)-(4-(6,7-difluorobenzo[d]oxazol-2-yl)-6,7-dihydro-1H-imidazo[4,5-c]pyridin-5(4H)-yl)(4-(difluoromethyl)oxazol-5-yl)methanone] | ≤ 500 nM |
| CC(C)(O)c1nc(C(F)F)c(C(=O)N2CCc3[nH]cnc3[C@@H]2c2nc3c(Br)cccc3o2)o1 [Example 432, (R)-(4-(4-bromobenzo[d]oxazol-2-yl)-6,7-dihydro-1H-imidazo[4,5-c]pyridin-5(4H)-yl)(4-(difluoromethyl)-2-(2-hydroxypropan-2-yl)oxazol-5-yl)methanone] | ≤ 500 nM |
| CNC(C)(C)c1nc(C(F)F)c(C(=O)N2CCc3[nH]cnc3[C@@H]2c2nc3cc(F)ccc3o2)o1 [Example 222, (R)-(4-(difluoromethyl)-2-(2-(methylamino)propan-2-yl)oxazol-5-yl)(4-(5-fluorobenzo[d]oxazol-2-yl)-6,7-dihydro-1H-imidazo[4,5-c]pyridin-5(4H)-yl)methanone] | 1000 to 5000 nM |
| COc1cccc2nc([C@H]3c4nc[nH]c4CCN3C(=O)c3ncnn3C)oc12 [Example 776, (R)-(4-(7-methoxybenzo[d]oxazol-2-yl)-6,7-dihydro-1H-imidazo[4,5-c]pyridin-5(4H)-yl)(1-methyl-1H-1,2,4-triazol-5-yl)methanone] | 1000 to 5000 nM |
| COc1cc(F)c2oc([C@@H]3c4nc[nH]c4CCN3C(=O)c3ocnc3C(F)F)nc2c1 [Example 663, (S)-(4-(difluoromethyl)oxazol-5-yl)(4-(7-fluoro-5-methoxybenzo[d]oxazol-2-yl)-6,7-dihydro-1H-imidazo[4,5-c]pyridin-5(4H)-yl)methanone] | ≤ 500 nM |
| O=C(c1cnn2cc(N3CCOCC3)c(Cl)cc12)N1CCc2[nH]cnc2[C@@H]1c1nc2cc(F)ccc2o1 [Example 176, (R)-(5-chloro-6-morpholinopyrazolo[1,5-a]pyridin-3-yl)(4-(5-fluorobenzo[d]oxazol-2-yl)-6,7-dihydro-1H-imidazo[4,5-c]pyridin-5(4H)-yl)methanone] | 1000 to 5000 nM |

Further lines, results first:

| AC50 | Compound |
| --- | --- |
| ≤ 500 nM | O=C(c1ocnc1C(F)F)N1CCc2[nH]cnc2[C@@H]1c1nc2cc(Cl)cc(F)c2o1 [Example 607, (R)-(4-(5-chloro-7-fluorobenzo[d]oxazol-2-yl)-6,7-dihydro-1H-imidazo[4,5-c]pyridin-5(4H)-yl)(4-(difluoromethyl)oxazol-5-yl)methanone] |
| ≤ 500 nM | Cc1ncoc1C(=O)N1CCc2[nH]cnc2[C@H]1c1nc2ccccc2o1 [Example 793, (S)-(4-(benzo[d]oxazol-2-yl)-6,7-dihydro-1H-imidazo[4,5-c]pyridin-5(4H)-yl)(4-methyloxazol-5-yl)methanone] |
| 1000 to 5000 nM | COc1cccc2oc([C@H]3c4nc[nH]c4CCN3C(=O)c3nnc(-c4ccn(C)n4)o3)nc12 [Example 640, (R)-(4-(4-methoxybenzo[d]oxazol-2-yl)-6,7-dihydro-1H-imidazo[4,5-c]pyridin-5(4H)-yl)(5-(1-methyl-1H-pyrazol-3-yl)-1,3,4-oxadiazol-2-yl)methanone] |
| ≤ 500 nM | Cc1nc(-c2ccccn2)oc1C(=O)N1CCc2[nH]cnc2[C@H]1c1nc2cccc(F)c2o1 [Example 594, (S)-(4-(7-fluorobenzo[d]oxazol-2-yl)-6,7-dihydro-1H-imidazo[4,5-c]pyridin-5(4H)-yl)(4-methyl-2-(pyridin-2-yl)oxazol-5-yl)methanone] |
| ≤ 500 nM | COc1cccc2nc([C@@H]3c4nc[nH]c4CCN3C(=O)c3ccnn3C3CC3)oc12 [Example 767, (S)-(1-cyclopropyl-1H-pyrazol-5-yl)(4-(7-methoxybenzo[d]oxazol-2-yl)-6,7-dihydro-1H-imidazo[4,5-c]pyridin-5(4H)-yl)methanone] |
| ≤ 500 nM | CN1CCN(c2cn3ncc(C(=O)N4CCc5[nH]cnc5[C@H]4c4nc5cc(F)ccc5o4)c3cc2Cl)CC1 [Example 181, (S)-(5-chloro-6-(4-methylpiperazin-1-yl)pyrazolo[1,5-a]pyridin-3-yl)(4-(5-fluorobenzo[d]oxazol-2-yl)-6,7-dihydro-1H-imidazo[4,5-c]pyridin-5(4H)-yl)methanone] |
| 1000 to 5000 nM | Cn1nc(C(F)(F)F)nc1C(=O)N1CCc2[nH]cnc2[C@@H]1c1nc2cccc(F)c2o1 [Example 280, (R)-(4-(7-fluorobenzo[d]oxazol-2-yl)-6,7-dihydro-1H-imidazo[4,5-c]pyridin-5(4H)-yl)(1-methyl-3-(trifluoromethyl)-1H-1,2,4-triazol-5-yl)methanone] |
| 1000 to 5000 nM | C[C@H](O)c1nc(C(F)F)c(C(=O)N2CCc3[nH]cnc3[C@@H]2c2nc3c(F)cccc3o2)o1 [Example 228, (4-(difluoromethyl)-2-((S)-1-hydroxyethyl)oxazol-5-yl)((R)-4-(4-fluorobenzo[d]oxazol-2-yl)-6,7-dihydro-1H-imidazo[4,5-c]pyridin-5(4H)-yl)methanone] |
| 1000 to 5000 nM | C[C@@H](O)c1nc(C(F)F)c(C(=O)N2CCc3[nH]cnc3[C@@H]2c2nc3ccc(F)cc3o2)o1 [Example 240, (4-(difluoromethyl)-2-((R)-1-hydroxyethyl)oxazol-5-yl)((R)-4-(6-fluorobenzo[d]oxazol-2-yl)-6,7-dihydro-1H-imidazo[4,5-c]pyridin-5(4H)-yl)methanone] |
| ≤ 500 nM | CC(C)(F)c1ncc(C(=O)N2CCc3[nH]cnc3[C@H]2c2nc3cc(F)ccc3o2)o1 [Example 13, (S)-(4-(5-fluorobenzo[d]oxazol-2-yl)-6,7-dihydro-1H-imidazo[4,5-c]pyridin-5(4H)-yl)(2-(2-fluoropropan-2-yl)oxazol-5-yl)methanone] |
| 1000 to 5000 nM | Cc1ccc2oc([C@H]3c4nc[nH]c4CCN3C(=O)c3oc(C(C)(C)O)nc3C)nc2c1 [Example 332, (R)-(2-(2-hydroxypropan-2-yl)-4-methyloxazol-5-yl)(4-(5-methylbenzo[d]oxazol-2-yl)-6,7-dihydro-1H-imidazo[4,5-c]pyridin-5(4H)-yl)methanone] |
| ≤ 500 nM | O=C(c1oc(-c2cnccn2)nc1C(F)F)N1CCc2[nH]cnc2[C@H]1c1nc2cccc(F)c2o1 [Example 693, (S)-(4-(difluoromethyl)-2-(pyrazin-2-yl)oxazol-5-yl)(4-(7-fluorobenzo[d]oxazol-2-yl)-6,7-dihydro-1H-imidazo[4,5-c]pyridin-5(4H)-yl)methanone] |
| ≤ 500 nM | Cc1ccc2oc([C@@H]3c4nc[nH]c4CCN3C(=O)c3ccnn3C(F)F)nc2c1 [Example 313, (S)-(1-(difluoromethyl)-1H-pyrazol-5-yl)(4-(5-methylbenzo[d]oxazol-2-yl)-6,7-dihydro-1H-imidazo[4,5-c]pyridin-5(4H)-yl)methanone] |

Same assay, conditions: A375 cells expressing R408W PAH; 24 hrs with compound, then 20 μM sepiapterin and 800 μM 13C9,15N-Phenylalanine for 4 hours; 13C-Tyrosine by LC-MS; average where tested multiple times

| Compound | AC50 |
| --- | --- |
| N#Cc1ccc2c(C(=O)N3CCc4[nH]cnc4C3c3nc4cc(F)ccc4o3)cnn2c1 (stereo not drawn) | ≥ 5000 nM |
| Cc1ncoc1C(=O)N1CCc2[nH]cnc2C1c1nc2cc(F)ccc2o1 (stereo not drawn) | ≥ 5000 nM |
| CC(C)(F)c1nnc(C(=O)N2CCc3[nH]cnc3C2c2nc3cc(F)ccc3o2)o1 (stereo not drawn) | 1000 to 5000 nM |
| Cc1ccc2nc(C3c4nc[nH]c4CCN3C(=O)c3cnco3)oc2c1 (stereo not drawn) | ≥ 5000 nM |
| O=C(c1cnn2cc(N3CCS(=O)(=O)CC3)ccc12)N1CCc2[nH]cnc2C1c1nc2cc(F)ccc2o1 (stereo not drawn) | ≥ 5000 nM |
| Cn1ncnc1C(=O)N1CCc2[nH]cnc2C1c1nc2ccc(F)cc2o1 (stereo not drawn) | ≥ 5000 nM |
| O=C(c1cn(-c2ccccn2)nc1Cl)N1CCc2[nH]cnc2[C@@H]1c1nc2cc(F)ccc2o1 (single isomer, unassigned) | ≥ 5000 nM |
| CN(C)Cc1nnc(C(=O)N2CCc3[nH]cnc3[C@@H]2c2nc3cc(F)ccc3o2)o1 (single isomer, unassigned) | ≥ 5000 nM |

Second part, the compound after the results:

| AC50 | Compound |
| --- | --- |
| ≥ 5000 nM | Cc1nc(C(C)(C)N(C)C)oc1C(=O)N1CCc2[nH]cnc2C1c1nc2cc(F)ccc2o1 (stereo not drawn) |
| 1000 to 5000 nM | CC(C)(O)c1nc(C(F)F)c(C(=O)N2CCc3[nH]cnc3C2c2nc3cc(C#N)ccc3o2)o1 (stereo not drawn) |
